Data on ten compounds can be found in US7790725B2, “Thiazolidine derivatives and medicinal use thereof” (Mitsubishi Tanabe Pharma Corporation, priority 2001, dated 2010).

The target in one test is T1, Human plasma DPP-IV (Homo sapiens, UniProt P27487).
T1 construct: Human plasma DPP-IV; from tissue; host or cells: human plasma
Put plainly: Plasma DPP-IV inhibitory activity, fluorescence assay with Gly-Pro-MCA (human plasma). Conditions: for IC50: human plasma (10-fold dilution), Gly-Pro-MCA substrate, room temperature, 60 min. It counts as biochemical. As to the method:
(§1) The plasma DPP-IV inhibitory activity of human and rat was measured according to the fluorescence assay method and under the conditions of Table 10. As a DPP-IV specific fluorescent substrate, Gly-Pro-MCA (Peptide Institute, Inc.) was used, and reaction solutions having the following compositions containing various concentrations of the test substance were incubated at room temperature for 60 min and the fluorescence intensity (Excitation 360 nm/Emission 465 nm) measured (SPECTRA FLUOR, Tecan Group, Ltd.) was taken as the DPP-IV activity.
(§2) The inhibitory ratio to a solvent addition group was calculated and IC50 value was determined by logistic analysis.

A further test addresses T2, Rat plasma DPP-IV (Rattus norvegicus, UniProt P14740).
T2 construct: Rat plasma DPP-IV; from tissue; host or cells: rat plasma
Put plainly: Plasma DPP-IV inhibitory activity, fluorescence assay with Gly-Pro-MCA (rat plasma). It counts as biochemical. Conditions: rat plasma (10-fold dilution), Gly-Pro-MCA substrate, room temperature, 60 min. As to the method: as §1, §2

Counter-ions that a name gives are not always drawn.

T2 sequence (P14740 38-767 limits assumed): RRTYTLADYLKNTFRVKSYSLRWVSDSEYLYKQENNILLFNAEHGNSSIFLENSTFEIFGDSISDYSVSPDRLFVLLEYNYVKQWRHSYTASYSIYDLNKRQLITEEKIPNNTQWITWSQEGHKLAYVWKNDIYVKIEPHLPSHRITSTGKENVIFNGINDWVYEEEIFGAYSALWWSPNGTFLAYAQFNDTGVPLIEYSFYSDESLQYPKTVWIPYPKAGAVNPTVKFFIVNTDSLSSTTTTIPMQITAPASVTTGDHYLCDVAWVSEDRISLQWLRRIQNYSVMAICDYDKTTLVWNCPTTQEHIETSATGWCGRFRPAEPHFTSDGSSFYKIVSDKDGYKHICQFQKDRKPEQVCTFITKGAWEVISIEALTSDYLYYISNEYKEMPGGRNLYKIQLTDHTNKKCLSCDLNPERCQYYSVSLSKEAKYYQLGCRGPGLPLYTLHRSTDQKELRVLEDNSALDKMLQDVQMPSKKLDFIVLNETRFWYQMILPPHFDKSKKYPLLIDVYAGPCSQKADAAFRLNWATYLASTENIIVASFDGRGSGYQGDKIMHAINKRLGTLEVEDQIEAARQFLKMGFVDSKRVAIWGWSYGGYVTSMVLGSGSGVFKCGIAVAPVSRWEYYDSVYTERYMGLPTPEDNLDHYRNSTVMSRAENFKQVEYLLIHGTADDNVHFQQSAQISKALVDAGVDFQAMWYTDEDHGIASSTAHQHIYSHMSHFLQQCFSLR
T1 sequence (P27487 39-766 limits assumed): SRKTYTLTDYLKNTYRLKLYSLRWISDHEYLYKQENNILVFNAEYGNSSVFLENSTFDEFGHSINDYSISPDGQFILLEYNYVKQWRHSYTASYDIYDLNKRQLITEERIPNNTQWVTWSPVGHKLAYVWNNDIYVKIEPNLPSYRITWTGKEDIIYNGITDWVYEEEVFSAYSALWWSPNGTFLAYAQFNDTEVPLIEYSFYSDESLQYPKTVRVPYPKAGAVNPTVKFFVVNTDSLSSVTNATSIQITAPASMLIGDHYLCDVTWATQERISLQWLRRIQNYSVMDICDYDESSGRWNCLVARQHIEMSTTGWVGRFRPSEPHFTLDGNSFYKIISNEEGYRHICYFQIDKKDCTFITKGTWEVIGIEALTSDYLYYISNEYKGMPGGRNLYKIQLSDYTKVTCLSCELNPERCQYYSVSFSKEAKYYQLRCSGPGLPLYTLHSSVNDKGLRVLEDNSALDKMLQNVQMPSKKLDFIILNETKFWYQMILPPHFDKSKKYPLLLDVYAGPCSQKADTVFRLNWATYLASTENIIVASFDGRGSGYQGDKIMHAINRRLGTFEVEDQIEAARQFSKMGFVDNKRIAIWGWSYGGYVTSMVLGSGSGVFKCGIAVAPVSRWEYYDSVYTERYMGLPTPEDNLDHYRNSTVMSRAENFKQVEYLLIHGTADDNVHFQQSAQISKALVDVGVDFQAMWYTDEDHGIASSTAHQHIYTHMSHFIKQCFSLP

Broadly, the IC50 is the concentration needed to halve the response being measured. For `O=C([C@@H]1C[C@H](N2CCN(c3cc(C(F)(F)F)nc4ccc(O)cc34)CC2)CN1)N1CCSC1` [Example 48, 3-{(2S,4S)-4-[4-(2-trifluoromethyl-6-hydroxy-4-quinolyl)-1-piperazinyl]-2-pyrrolidinylcarbonyl}-1,3-thiazolidine dihydrochloride], the values for the IC50 against Human plasma DPP-IV and against Rat plasma DPP-IV were 0.25 nM and 0.37 nM, respectively.
In the case of `N#Cc1ccc(NCCCC[C@H](N)C(=O)N2CCSC2)nc1` [Example 6, 3-[(S)-2-amino-6-(5-cyanopyridin-2-ylamino)hexanoyl]-1,3-thiazolidine dihydrochloride], the IC50 is 34 nM against Human plasma DPP-IV and 29 nM against Rat plasma DPP-IV.
On the same counts, the results for `N[C@@H](CCCCNc1ccc([N+](=O)[O-])cn1)C(=O)N1CCSC1` [Example 14, 3-[(S)-2-amino-6-(5-nitropyridin-2-ylamino)hexanoyl]-1,3-thiazolidine] are 29 nM and 18 nM.
In the case of `COc1cc(OC)c2nc(C(F)(F)F)cc(N3CCN([C@@H]4CN[C@H](C(=O)N5CCSC5)C4)CC3)c2c1` [Example 55, 3-{(2S,4S)-4-[4-(2-trifluoromethyl-6,8-dimethoxy-4-quinolyl)-1-piperazinyl]-2-pyrrolidinylcarbonyl}-1,3-thiazolidine dihydrochloride], the IC50 against Human plasma DPP-IV was determined as 0.24 nM; at Rat plasma DPP-IV, 0.3 nM.
On the same counts, the results for `N[C@@H](CCCCN1CCN(c2cc(C(F)(F)F)nc3ccccc23)CC1)C(=O)N1CCSC1` [Example 28, 3-{(S)-2-amino-6-[4-(2-trifluoromethyl-4-quinolyl)piperazin-1-yl]hexanoyl}-1,3-thiazolidine dihydrochloride] are 35 nM and 49 nM.
On the same counts, the results for `CS(=O)(=O)c1ccc(NCCCC[C@H](N)C(=O)N2CCSC2)cc1` [Example 7, 3-[(S)-2-amino-6-(4-methanesulfonylphenylamino)hexanoyl]-1,3-thiazolidine] are 15 nM and 13 nM.
Regarding `N#Cc1ccc(NCCCC[C@H](N)C(=O)N2CCSC2)cc1C(F)(F)F` [Example 13, 3-{(S)-2-amino-6-[4-cyano-3-(trifluoromethyl)phenylamino]hexanoyl}-1,3-thiazolidine], the figures for the IC50 against Human plasma DPP-IV and on Rat plasma DPP-IV were 66 nM and 40 nM, respectively.
As to `N#Cc1ccc(NCCCC[C@H](N)C(=O)N2CCSC2)c([N+](=O)[O-])c1` [Example 5, 3-[(S)-2-amino-6-(4-cyano-2-nitrophenylamino)hexanoyl]-1,3-thiazolidine], the IC50 was 28 nM against Human plasma DPP-IV and 19 nM at Rat plasma DPP-IV.
Regarding `Cc1cc(C)n(C2CCN([C@@H]3CN[C@H](C(=O)N4CCSC4)C3)CC2)n1` [Example 56, 3-{(2S,4S)-4-[4-(3,5-dimethyl-1-pyrazolyl)piperidino]-2-pyrrolidinylcarbonyl}-1,3-thiazolidine trihydrochloride], the IC50 at Human plasma DPP-IV was determined as 0.91 nM; against Rat plasma DPP-IV it was 1.17 nM.
In the case of `NCCCC[C@H](N)C(=O)N1CCSC1.O=C(O)C(F)(F)F.O=C(O)C(F)(F)F` [comparison compound 1, 3-L-lysyl-1,3-thiazolidine ditrifluoroacetate, reference compound], the IC50 was determined as 856 nM on Human plasma DPP-IV and 719 nM on Rat plasma DPP-IV. Moreover, on Human plasma DPP-IV (statement in the text on Experimental Example 1, species not distinguished), the “plasma DPP-IV inhibitory activity (assessment in words)” value is given as “sufficient”.
